Laboratory results reported in PubChem BioAssay AID328 (DTP/NCI, 2004).
Where “and” joins values, the source holds several entries; their conditions need not be identical. Equal values may be shown once. Inconclusive results and toxic doses are left out. The calls were made as follows: active = survival T/C of 150% or more; inactive = T/C below 125% in these data.

Test system: BDF1 mice, P388 leukemia ip, median survival T/C
Experiment: NCI In Vivo Anticancer Drug Screen. Data for tumor model P388 Leukemia (intraperitoneal) in B6D2F1 (BDF1) mice
Conditions: endpoint: median survival time, higher = longer survival
Procedure, shortened: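 In tumour-bearing mice, survival after compound treatment is set against the vehicle group and given as a quotient.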

[1] = dose: 25.0 mg/kg/injection, schedule: Q04DX003 (ip), vehicle: saline with Tween-80
[2] = dose: 50.0 mg/kg/injection, schedule: Q04DX003 (ip), vehicle: saline with Tween-80
[3] = dose: 100.0 mg/kg/injection, schedule: Q04DX003 (ip), vehicle: saline with Tween-80
[4] = dose: 100.0 mg/kg/injection, schedule: Q04DX003 (ip), vehicle: saline
[5] = dose: 100.0 mg/kg/injection, schedule: Q01DX009 (ip), vehicle: Klucel (hydroxypropylcellulose) (HPC)
[6] = dose: 50.0 mg/kg/injection, schedule: Q01DX009 (ip), vehicle: saline with Tween-80
[7] = dose: 100.0 mg/kg/injection, schedule: Q01DX009 (ip), vehicle: saline with Tween-80
[8] = dose: 200.0 mg/kg/injection, schedule: Q01DX009 (ip), vehicle: saline with Tween-80
[9] = dose: 25.0 mg/kg/injection, schedule: Q01DX009 (ip), vehicle: saline
[10] = dose: 50.0 mg/kg/injection, schedule: Q01DX009 (ip), vehicle: saline
[11] = dose: 100.0 mg/kg/injection, schedule: Q01DX009 (ip), vehicle: saline
[12] = dose: 100.0 mg/kg/injection, schedule: Q04DX003 (ip), vehicle: Klucel (hydroxypropylcellulose) (HPC)
[13] = dose: 200.0 mg/kg/injection, schedule: Q04DX003 (ip), vehicle: Klucel (hydroxypropylcellulose) (HPC)
[14] = dose: 25.0 mg/kg/injection, schedule: Q01DX009 (ip), vehicle: saline with Tween-80
[15] = dose: 200.0 mg/kg/injection, schedule: Q01DX009 (ip), vehicle: Klucel (hydroxypropylcellulose) (HPC)
[16] = dose: 50.0 mg/kg/injection, schedule: Q01DX009 (ip), vehicle: Klucel (hydroxypropylcellulose) (HPC)

Measured: T/C

NC(COc1ccccc1)Cc1ccccc1 (stereo not drawn)
inactive: [1] 113 % of control | dose: 25.0 mg/kg/injection, schedule: Q04DX003 (ip), vehicle: suspension in saline 90 % of control | [2] 123 % of control | dose: 50.0 mg/kg/injection, schedule: Q04DX003 (ip), vehicle: suspension in saline 90 % of control | [3] 105 % of control | [4] 109 % of control | dose: 100.0 mg/kg/injection, schedule: Q04DX003 (ip), vehicle: suspension in saline 98 % of control

Cc1c2c(cc3c1[nH]c1ccccc13)C(c1ccc(Cl)cc1)=NCC2
inactive: [5] 86 % of control

N#Cc1ccc(CC(O)c2ccc(Cl)cc2)cc1 (stereo not drawn)
inactive: [6] 108 % of control | [7] 89 % of control | [8] 96 % of control

CC1C[N-]1.CC1C[N-]1.[Cl][Pt+2][Cl] (stereo not drawn)
inactive: [9] 100 % of control | [10] 111 % of control | [11] 101 % of control | dose: 150.0 mg/kg/injection, schedule: Q01DX009 (ip), vehicle: saline 100 % of control

CC(=O)N1CCCCCC1=O
inactive: [6] 104 % of control | [7] 89 % of control | [8] 104 % of control | dose: 400.0 mg/kg/injection, schedule: Q01DX009 (ip), vehicle: saline with Tween-80 90 % of control

Cc1ccc(CC(=O)O)cc1C
inactive: dose: 44.0 mg/kg/injection, schedule: Q04DX003 (ip), vehicle: saline with Tween-80 109 % of control | dose: 66.0 mg/kg/injection, schedule: Q04DX003 (ip), vehicle: saline with Tween-80 104 % of control | [3] 104 % of control | dose: 150.0 mg/kg/injection, schedule: Q04DX003 (ip), vehicle: saline with Tween-80 104 % of control

Brc1c(-c2ccccc2)cc(-c2ccccc2)cc1-c1ccccc1
inactive: [12] 108 % of control | [13] 95 % of control | dose: 400.0 mg/kg/injection, schedule: Q04DX003 (ip), vehicle: Klucel (hydroxypropylcellulose) (HPC) 95 % of control

O=C1C=CCCCC1
inactive: [14] 109 % of control | [1] 103 % of control | [6] 109 % of control and 112 % of control | [2] 88 % of control | [7] 104 % of control | [3] 100 % of control

S=c1[nH]nc(Nc2ccccc2Cl)s1
inactive: [6] 100 % of control | [7] 90 % of control | [8] 100 % of control

CC1CN(N)CC(C)N1Cc1ccccc1 (stereo not drawn)
inactive: dose: 3.12 mg/kg/injection, schedule: Q04DX003 (ip), vehicle: water 98 % of control | dose: 6.25 mg/kg/injection, schedule: Q04DX003 (ip), vehicle: water 104 % of control | dose: 12.5 mg/kg/injection, schedule: Q04DX003 (ip), vehicle: water 108 % of control | dose: 25.0 mg/kg/injection, schedule: Q04DX003 (ip), vehicle: water 113 % of control

COc1cccc(/C=N/NC(=O)C2CCN(C(=S)NC3CC4C=CC3C4)CC2)c1O (stereo not drawn)
inactive: dose: 1.56 mg/kg/injection, schedule: Q01DX009 (ip), vehicle: saline with Tween-80 90 % of control | dose: 3.12 mg/kg/injection, schedule: Q01DX009 (ip), vehicle: saline with Tween-80 89 % of control | dose: 6.25 mg/kg/injection, schedule: Q01DX009 (ip), vehicle: saline with Tween-80 87 % of control and 92 % of control | dose: 12.5 mg/kg/injection, schedule: Q01DX009 (ip), vehicle: saline with Tween-80 89 % of control | [14] 92 % of control | [6] 101 % of control

Cc1ccc(CC(N)c2nn[nH]n2)cc1 (stereo not drawn)
inactive: [14] 97 % of control | [6] 105 % of control | [7] 100 % of control

Cc1ccc(OC(=O)Nc2ccc(C(=O)O)c(O)c2)cc1
inactive: [10] 118 % of control | [11] 109 % of control | [4] 100 % of control | dose: 200.0 mg/kg/injection, schedule: Q04DX003 (ip), vehicle: saline 113 % of control

O=CC(C=O)[N+](=O)[O-]
inactive: [5] 91 % of control | [15] 95 % of control | dose: 400.0 mg/kg/injection, schedule: Q01DX009 (ip), vehicle: Klucel (hydroxypropylcellulose) (HPC) 108 % of control

COS(=O)(=O)Oc1ccc2ccccc2c1
inactive: dose: 25.0 mg/kg/injection, schedule: Q01DX009 (ip), vehicle: Klucel (hydroxypropylcellulose) (HPC) 98 % of control | [16] 100 % of control | [5] 108 % of control

COC1C(=O)CCC2(CO2)C1(O)C1(C)OC1CCC(C)C (stereo not drawn)
inactive: dose: 22.0 mg/kg/injection, schedule: Q01DX009 (ip), vehicle: saline with Tween-80 109 % of control | dose: 44.0 mg/kg/injection, schedule: Q01DX009 (ip), vehicle: saline with Tween-80 109 % of control | dose: 87.5 mg/kg/injection, schedule: Q01DX009 (ip), vehicle: saline with Tween-80 110 % of control and 118 % of control

CC(C)(C)N(O)N=O.CC(C)(C)N(O)N=O.[Cu]
inactive: dose: 1.56 mg/kg/injection, schedule: Q01DX001 (ip), vehicle: saline 107 % of control | dose: 3.13 mg/kg/injection, schedule: Q01DX001 (ip), vehicle: saline 109 % of control | dose: 6.25 mg/kg/injection, schedule: Q01DX001 (ip), vehicle: saline 106 % of control

COc1ccc(/C=C2\CCCC3=C2NC(=S)NC3c2ccc(OC)cc2)cc1 (stereo not drawn)
inactive: [6] 107 % of control | [7] 97 % of control | [8] 91 % of control

CCN1C(=O)CC(=O)N(CC)C1=S
inactive: [16] 95 % of control | [5] 91 % of control | [12] 96 % of control | [15] 104 % of control | [13] 92 % of control

NCC1OC(OC2C(CO)OC(OC3C(O)C(N)CC(N)C3OC3OC(CO)C(O)C(O)C3N)C2O)C(N)C(O)C1O (stereo not drawn)
inactive: [11] 104 % of control | dose: 200.0 mg/kg/injection, schedule: Q01DX009 (ip), vehicle: saline 106 % of control | dose: 400.0 mg/kg/injection, schedule: Q01DX009 (ip), vehicle: saline 97 % of control

Clc1ccc(-c2nc3ccccc3cc2N2CCCCC2)cc1
inactive: dose: 100.0 mg/kg/injection, schedule: Q01DX001 (ip), vehicle: other 110 % of control | dose: 200.0 mg/kg/injection, schedule: Q01DX001 (ip), vehicle: other 105 % of control | dose: 400.0 mg/kg/injection, schedule: Q01DX001 (ip), vehicle: other 105 % of control

C#CCOC1CCCCO1 (stereo not drawn)
inactive: [9] 90 % of control | [10] 100 % of control | [11] 100 % of control

Cc1ccc(NCN2C(=O)NC(c3ccccc3)(c3ccccc3)C2=O)cc1
inactive: dose: 100.0 mg/kg/injection, schedule: Q01DX001 (ip), vehicle: saline with Tween-80 90 % of control | dose: 200.0 mg/kg/injection, schedule: Q01DX001 (ip), vehicle: saline with Tween-80 95 % of control

CC1(C)C2CCC([CH2][Hg][Cl])C1C2 (stereo not drawn)
inactive: dose: 1.5 mg/kg/injection, schedule: Q01DX009 (ip), vehicle: Klucel (hydroxypropylcellulose) (HPC) 90 % of control | dose: 3.0 mg/kg/injection, schedule: Q01DX009 (ip), vehicle: Klucel (hydroxypropylcellulose) (HPC) 100 % of control | dose: 6.0 mg/kg/injection, schedule: Q01DX009 (ip), vehicle: Klucel (hydroxypropylcellulose) (HPC) 90 % of control | dose: 12.0 mg/kg/injection, schedule: Q01DX009 (ip), vehicle: Klucel (hydroxypropylcellulose) (HPC) 104 % of control | [14] 115 % of control
